{"source": "patent US20060014949A1", "about": "(SuperGen Inc., priority 2004, published 2006)", "assay_type_in_all_cases": "physicochemical", "key": {"[1]": {"test": "Thermogravimetric analysis (TGA)", "settings": "25 to 150° C.; listed as A", "experimental": "Thermogravimetric analysis (TGA) was carried out on TA Instruments TGA 2050 or 2950. The calibration standards were nickel and Alumel™. Samples were placed on a clean, aluminum sample pan, accurately weighed, and inserted into the TGA furnace. The samples were heated in nitrogen at a rate of 10° C./min, from 35° C. to a final temperature of 250° C."}, "[2]": {"test": "Relative humidity stress experiments, XRPD after storage over saturated salt solutions", "settings": "Sodium Chloride, 75.5 % RH @ 20° C., 27 days", "experimental": "In relative humidity (RH) stress analysis, open vials containing solid samples were placed inside chambers containing saturated salt solutions along with a small amount of the undissolved salt. The chambers were sealed and allowed to stand at ambient temperature for several days. Samples were analyzed by X-ray powder diffraction (XRPD) immediately after removing the sample from the RH chamber. The RH values these salt solutions were obtained from an ASTM standard."}, "[3]": {"test": "Moisture sorption/desorption analysis (VTI SGA-100)", "settings": "for Weight % chg: Table 3", "experimental": "Moisture sorption/desorption data were collected on a VTI SGA-100 Vapor Sorption Analyzer. Sorption and desorption data were collected over a range of 5 to 95% relative humidity (RH) at 10% RH increments under a nitrogen purge. Sodium chloride (NaCl) and polyvinylpyrrolidone (PVP) were used as the calibration standards. Equilibrium criteria used for analysis were less than 0.0100% weight change in 5 minutes, with a maximum equilibration time of 180 minutes if the weight criterion was not met. Data collected were not corrected for the initial moisture content of the samples."}, "[4]": {"test": "Solid-state stress (compression, heating, grinding, storage) with XRPD form check", "settings": "no solvent; Hydraulic Press 10,000 lbs 1 hour", "experimental": "X-ray powder diffraction analyses were carried out on a Shimadzu XRD-6000 X-ray powder diffractometer using Cu Kα radiation having a wavelength of 1.5406 Å. The instrument is equipped with a fine-focus X-ray tube. The tube power was set by setting potential difference at 40 kV, and current 40 mA. The divergence and scattering slits were set at 1° and the receiving slit was set at 0.15 mm. Diffracted radiation was detected by a NaI scintillation detector. A theta-two theta continuous scan at 3°/min (0.4 sec/0.02° step) from 2.5 to 40 °2θ was performed. A silicon standard was analyzed each day to check the instrument alignment. Each sample was analyzed in a quartz sample holder. A variable temperature (VT-XRPD) experiment was performed on one form. The sample was prepared for analysis by pressing it into a variable temperature holder."}}}
{"smiles": "Nc1ncn([C@H]2C[C@H](O)[C@@H](CO)O2)c(=O)n1", "note": "[Form A]", "values": [{"measurement": "TGA Results: percent weight change from 25 to 150° C.", "setting": "[1]", "result": "<0.1", "unit": "%"}, {"measurement": "XRPD result", "setting": "[2]", "result": "converts into form B"}, {"measurement": "total weight loss in the region from 5 to 45% RH", "setting": "[3]; 5 to 45% RH", "result": "about 0.1%"}, {"measurement": "total weight gain from 5 to 95% RH", "setting": "[3]; 5 to 95% RH, listed as form A", "result": 7.3, "unit": "%"}, {"measurement": "Weight % chg", "setting": "[3]; desorption, RH 4.93 %, 24.89 deg C, 533.4 min", "result": 7.1472, "unit": "%"}, {"measurement": "Weight % chg", "setting": "[3]; desorption, RH 15.15 %, 24.89 deg C, 524.9 min", "result": 7.1528, "unit": "%"}, {"measurement": "Weight % chg", "setting": "[3]; desorption, RH 25.13 %, 24.88 deg C, 515.4 min", "result": 7.1586, "unit": "%"}, {"measurement": "Weight % chg", "setting": "[3]; desorption, RH 35.12 %, 24.88 deg C, 504.8 min", "result": 7.1671, "unit": "%"}, {"measurement": "Weight % chg", "setting": "[3]; desorption, RH 45.07 %, 24.87 deg C, 493.8 min", "result": 7.1753, "unit": "%"}, {"measurement": "Weight % chg", "setting": "[3]; desorption, RH 55.14 %, 24.88 deg C, 480.8 min", "result": 7.1837, "unit": "%"}, {"measurement": "Weight % chg", "setting": "[3]; desorption, RH 65.19 %, 24.88 deg C, 467.8 min", "result": 7.1925, "unit": "%"}, {"measurement": "Weight % chg", "setting": "[3]; desorption, RH 75.49 %, 24.88 deg C, 454.8 min", "result": 7.2022, "unit": "%"}, {"measurement": "Weight % chg", "setting": "[3]; desorption, RH 85.43 %, 24.89 deg C, 443.8 min", "result": 7.2106, "unit": "%"}, {"measurement": "Weight % chg", "setting": "[3]; sorption, RH 5.14 %, 24.92 deg C, 27.9 min", "result": "−0.0698", "unit": "%"}, {"measurement": "Weight % chg", "setting": "[3]; sorption, RH 14.81 %, 24.92 deg C, 41.6 min", "result": "−0.0784", "unit": "%"}, {"measurement": "Weight % chg", "setting": "[3]; sorption, RH 24.88 %, 24.92 deg C, 51.2 min", "result": "−0.0804", "unit": "%"}, {"measurement": "Weight % chg", "setting": "[3]; sorption, RH 34.89 %, 24.92 deg C, 62.2 min", "result": "−0.0733", "unit": "%"}, {"measurement": "Weight % chg", "setting": "[3]; sorption, RH 44.86 %, 24.91 deg C, 82.2 min", "result": "−0.1004", "unit": "%"}, {"measurement": "Weight % chg", "setting": "[3]; sorption, RH 54.83 %, 24.91 deg C, 93.2 min", "result": "−0.0931", "unit": "%"}, {"measurement": "Weight % chg", "setting": "[3]; sorption, RH 64.82 %, 24.91 deg C, 107.7 min", "result": "−0.0775", "unit": "%"}, {"measurement": "Weight % chg", "setting": "[3]; sorption, RH 74.73 %, 24.91 deg C, 118.3 min", "result": "−0.0646", "unit": "%"}, {"measurement": "Weight % chg", "setting": "[3]; sorption, RH 84.63 %, 24.91 deg C, 304.2 min", "result": 3.8389, "unit": "%"}, {"measurement": "Weight % chg", "setting": "[3]; sorption, RH 94.67 %, 24.90 deg C, 433.1 min", "result": 7.2104, "unit": "%"}, {"measurement": "Weight % chg", "setting": "[3]; start, RH 1.46 %, 24.92 deg C, 0.0 min", "result": 0.0000, "unit": "%"}, {"measurement": "solid form after moisture sorption/desorption analysis", "setting": "[3]; after sorption/desorption cycle, listed as form A", "result": "retained during the desorption cycle as decitabine polymorph form B"}, {"measurement": "weight (water) lost upon equilibration to 5% RH", "setting": "[3]; equilibration to 5% RH, listed as form A", "result": 0.06, "unit": "%"}, {"measurement": "RH above which moisture sorption begins", "setting": "[3]; sorption cycle", "result": "above 75 % RH"}, {"measurement": "XRPD Pattern", "setting": "[4]", "result": "did not induce a form change"}]}
